# Values quoted from earlier work in patent publication US20240390444A1, “COMPOSITIONS AND METHODS LOWERING GLYCEMIC RESPONSE TO IMPROVE SLEEP QUALITY AND/OR SUBSEQUENT BEHAVIOURAL OUTCOMES” (SOCIETE DES PRODUITS NESTLE S.A., priority 2021, published 2024).
# Conditions: 12.5 mg DNJ in capsule, co-ingestion with maltodextrin
structure (smiles),measurement,value
"OC[C@H]1NC[C@H](O)[C@@H](O)[C@@H]1O [DNJ, 1-deoxynojirimycin]",reduction of PPGR,14%
